# From US20130022612A1, “METHODS AND COMPOSITIONS FOR MALARIA PROPHYLAXIS” (priority 2004, published 2013)
# Key:
# [1] = tested on: CSP processing in P. falciparum sporozoites; assay: Pulse-chase metabolic labeling of CSP processing, P. falciparum sporozoites; type: cell-based, Plasmodium falciparum; conditions: ninety minute chase
# Experimental: P. berghei sporozoites were incubated in Dulbecco's Modified Eagle Medium (DMEM; Invitrogen, Carlsbad, Calif.) without cysteine (Cys) and methionine (Met), containing 1% BSA and […] L-[35 S]-Cys/Met (Pro-Mix, Amersham Pharmacia) in a total volume of 200 μl for one hour at 28° C. They were then washed and resuspended in DMEM/BSA containing unlabeled Cys/Met at 28° C. for the indicated time in the presence or absence of the indicated protease inhibitor. Sporozoites were then lysed and CSP was immunoprecipitated and analyzed by autoradiography as outlined below.
# For experiments with P. falciparum, a 10% SDS-polyacrylamide gel was used. Gels were fixed in 25% methanol/12% acetic acid, enhanced with Amplify (Amersham Pharmacia) for 30 minutes, dried, and exposed to film.
# P. berghei sporozoites were metabolically labeled in DMEM without Cys/Met, 1% BSA and 400 μCi/ml L-[^355]-Cys/Met for 1 hour at 28° C. and then kept on ice or chased at 28° C. for the indicated times. Details of this procedure are outlined in (Coppi et al., 2005). To investigate the kinetics of processing in the presence of hepatocytes, sporozoites were labeled as above, chased at 28° C. for 1 hour and then centrifuged (300×g) onto glass coverslips with Hepa 1-6 cells and incubated at 37° C. for 5, 15 or 30 minutes. […]
# [2] = tested on: sporozoite migration through cells; conditions: 10 mM E-64, rhodamine-dextran positive cells
# Experimental: Migration assays were performed as previously described (Mota, M., et al.). Sporozoites were pre-incubated±10 mM E-64 for two hours at 28° C. and added to monolayers of Hepa 1-6 cells in the continued presence of inhibitor with 1 mg/ml rhodamine-dextran, 10,000 MW (Molecular Probes). After one hour at 37° C., the cells were washed, fixed and the number of rhodamine-positive cells in each field was counted.
# P. berghei sporozoites = assay: Propidium iodide toxicity assay on sporozoites; type: cell-based, Plasmodium berghei; conditions: for toxicity to sporozoites (propidium iodide): ten minutes
# Experimental: When sporozoites were incubated with specific inhibitors, their concentrations were as follows: 10 […] E-64; 1 mM phenylmethylsulfonyl fluoride (PMSF); 0.3 mM aprotinin; 100 mM 3,4 DCl; 75 mM leupeptin; 100 mM TLCK; 1 mM pepstatin; 1 mM 1,10 phenanthroline; 5 mM EDTA; 0.5% sodium azide. To check for toxicity by propidium iodide (PI) staining, P. berghei sporozoites were incubated in the presence or absence of the various protease inhibitors for two hours at 28° C., PI was then added to a final concentration of […] for five minutes at 28° C. The sporozoites were washed and viewed under a fluorescent microscope.
# P. berghei sporozoites were incubated with the indicated concentrations of allicin for ten or sixty minutes at 28° C., washed with DMEM, and then incubated with 1 μg/ml propidium iodide for five minutes at 25° C. The number of fluorescent sporozoites in each sample was counted using a Nikon Eclipse E600 microscope. Control samples consisted of sporozoites that were incubated for sixty minutes at 28° C. in DMEM without allicin and sporozoites that were heat killed at 65° C. for ten minutes.
SMILES,effect on CSP processing [1],sporozoite migration through cells [2],"number of fluorescent (propidium iodide) sporozoites (P. berghei sporozoites; 50 μM allicin 10 minutes, then 4.2 μM for 50 minutes)","increase in number of sporozoites taking up propidium iodide (P. berghei sporozoites; 50 μM allicin, one hour) [fold]",toxicity to sporozoites (propidium iodide) (P. berghei sporozoites; 50 μM allicin),percentage of sporozoites that took up propidium iodide (P. berghei sporozoites; 1 or 10 μM allicin for up to one hour),toxicity to sporozoites (propidium iodide) (P. berghei sporozoites; allicin concentrations higher than 50 μM)
"CC(C)C[C@H](NC(=O)[C@H]1O[C@@H]1C(=O)O)C(=O)NCCCCN=C(N)N (relative stereo) [E-64, L-trans-epoxysuccinyl-leucylamide-[4-guanido]-butane]",inhibited CSP processing,did not inhibit sporozoite migration through cells,,,,,
C=CCS[S+]([O-])CC=C (stereo not shown) [allicin],,,did not increase the number of fluorescent sporozoites compared to the untreated control,1.5,did not kill sporozoites,no different from the untreated control,toxic to the sporozoites even after only ten minutes of exposure
